*1 amine or outer side, *2 acyl side, *3 side chain or, on linkers, in order; H or OH if unused. Where a SMILES comes first, the peptide text is derived from it. [ ]: non-standard residue; d: D form. The star is where a group is joined. X3 = Cc1cc(F)cc(-c2cnc(NCCNC(=O)CCOCCOCCOCCOCCC(=O)*)c(-c3nc4ccc(Cl)cc4[nH]3)c2N2CCC(N)CC2)c1; Dolaproine = CO[C@@H]([C@@H]1CCCN1)[C@@H](C)C(=O)O; Dil = CC[C@H](C)[C@H](NC)[C@@H](CC(=O)O)OC; PABC = O=C(OCc1ccc(N[*:1])cc1)[*:2]; X2 = C[C@@H](N*)[C@@H](O)c1ccccc1; Cit = NC(=O)NCCC[C@H](N)C(=O)O; NMeV = CN[C@H](C(=O)O)C(C)C; Ahx = NCCCCCC(=O)O
Assays:
Type in all cases: cell-based
[1] = biological target: T1, human somatostatin receptor subtype 2 (Homo sapiens, UniProt P30874); test: Functional assay for SSTR2 agonists (HTRF cAMP); settings: CHO-K1 cells stably expressing human SST2; NKH477-stimulated cAMP; 20 min at 37 C; read-out: hSST2 cAMP Avg EC50
T1 construct: expressed in transfected cells
T1 sequence (P30874 whole entry): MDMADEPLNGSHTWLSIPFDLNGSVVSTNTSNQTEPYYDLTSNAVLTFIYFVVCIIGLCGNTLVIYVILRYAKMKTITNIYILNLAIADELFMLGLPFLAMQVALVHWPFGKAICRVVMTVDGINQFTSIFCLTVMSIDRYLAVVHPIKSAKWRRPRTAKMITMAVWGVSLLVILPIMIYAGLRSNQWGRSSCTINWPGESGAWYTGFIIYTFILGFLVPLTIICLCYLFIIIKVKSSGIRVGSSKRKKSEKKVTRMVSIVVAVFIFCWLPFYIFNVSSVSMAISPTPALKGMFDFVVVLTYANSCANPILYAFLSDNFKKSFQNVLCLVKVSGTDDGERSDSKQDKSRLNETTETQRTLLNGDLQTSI
Description: General overview: All five SSTR subtypes are Gi coupled G-protein coupled receptors (GPCRs) that lead to decreases in intracellular cyclic AMP (cAMP) when activated by an agonist. Therefore, measurement of intracellular cAMP levels can be used to assess whether compounds of the invention are agonists of SSTR subtypes (John Kelly, Troy Stevens, W. Joseph Thompson, and Roland Seifert, Current Protocols in Pharmacology. 2005, 2.2.1-2.2). One example of an intracellular cAMP assay is described below.
Four days prior to the assay, 2,000 Chinese hamster ovary cells (CHO-K1, ATCC #CCL-61) stably expressing the human somatostatin receptor subtype 2 are plated in each well of a 96-well tissue culture-treated plate in Ham's F12 growth media (ThermoFisher #10-080-CM) supplemented with 10% donor bovine serum (Gemini Bio-Products #100-506), 100 U/mL penicillin; 100 ug/mL streptomycin, 2 mM L-glutamine (Gemini Bio-Products #400-110) and 0.2 mg/mL hygromycin B (GoldBio #31282-04-9). The cells are cultured at 37° C., 5% CO2 and 95% humidity. cAMP is measured with HTRF dynamic cAMP assay (Cisbio. #62AM5PEJ) per manufacturer's instructions. […] The cells are incubated for 20 minutes at 37° C. (the final concentration of the compounds of the invention are typically 0-10,000 nM). The cells are treated with 50 μL of lysis buffer (HRTF cAMP kit, Cisbio) and incubated at room temperature for 30 minutes with rotary shaking at 600 rpm, and then diluted with 150 μL of stimulation buffer and shaken for an additional five minutes at 300 rpm. The lysate is transferred to 384-well plates and incubated for 1-24 hours at room temperature, and cAMP accumulation is detected by d2-labeled cAMP and Anti-cAMP-Cryptate. The time-resolved fluorescent signal is read using a m1000 Pro (Tecan) or CLARIOStar (BMG Labtech) microplate reader, where the samples are excited with light at 340 nm and emission light is measured at 620 nm and 665 nm. The data is expressed as a calculation of the fluorescence ratio (665 nm/620 nm). The intracellular cAMP concentrations are calculated by regression to a standard curve and are plotted vs, the concentration of the compounds of the invention. The EC50 of the compounds are calculated using standard methods. All data manipulations are in GraphPad Prism v9 (GraphPad, San Diego, CA).

SST2 = biological target: T2, SST2 (Homo sapiens, UniProt P30874); test: PathHunter CHO-K1 SST2 Internalization Assay; settings: PathHunter CHO-K1 SST2 cells; 90 min at 37 C; luminescence; read-out: Internalization EC50
T2 construct: host or cells: PathHunter CHO-K1 SST2 cells
T2 sequence (P30874 whole entry): as above
Experimental: NDCs of the present invention were assessed in vitro using the human PathHunter CHO-K1 SST2 β-arrestin2 and PathHunter CHO-K1 SST2 Internalization Assays from DiscoverX. The CHO-K cells were seeded in 20 μLs of cell culture medium in a white-walled 384 well tissue culture-compatible plate at a density of 2500 cells/well. After a 48-hour incubation, cells were treated with 5 μLs of a 1:3 serially diluted SST2 NDC prepared at 5× concentration with a final top compound concentration of 10 uM for 90 min at 37 C and in 5% CO2. 11 dilutions were tested as well as one treatment that was compound free. After incubation, the media containing treatments were discarded and 20 μL of a working solution of Beta-Glo from Promega Beta-Go Assay System was added to each well. The plate was then incubated for 60 min at room temperature in the dark. Luminescence was measured using a Tecan plate reader. IC50 curves were generated using the nonlinear regression analysis (four-parameters) with GraphPad Prism 9. Results were the average of duplicates and are corrected for background.

[2] = test system: NCI-H524 human small cell lung cancer cells; test: H524 assay: inhibition of cell proliferation (CellTiter Glo); settings: 2 h treatment, washout, additional 70 h incubation
Experimental: NDCs of the present invention were assessed in an in vitro assay evaluating the inhibition of cell proliferation. NCI-H524 (ATCC) human small cell lung cancer cells were plated in 96-well V-bottom plates (Costar) at a concentration of 5,000 cells/well. 24 h later, the cells were treated for 2 h with a NDC. NDC starting dose was 1 uM and two-fold serial dilutions were done for a total of 11 points. After 2 h of treatment, cells were spun down, and the drug-containing media was removed, and fresh complete media was added and used to resuspend the cells, which were spun again. After removal of the media, the cells were resuspended in complete medium and incubated for an additional 70 h. Cell proliferation was assessed using the CellTiter Glo Assay according to the standard protocol (Promega). Luminescence was measured using a TECAN plate reader. Percent proliferation inhibition was calculated using the following formula: % inhibition=(Luminescence Control−Luminescence Treatment)/Luminescence Control*100. IC50 curves were generated using the nonlinear regression analysis (four-parameter) with GraphPad Prism 9.

Row | Structure (SMILES) | EC50 [1] [nM] | EC50 (SST2) [nM] | EC50 [2] [nM]
1 | CC[C@H](C)[C@@H]([C@@H](CC(=O)N1CCC[C@H]1[C@H](OC)[C@@H](C)C(=O)N[C@H](C)[C@@H](O)c1ccccc1)OC)N(C)C(=O)[C@@H](NC(=O)[C@H](C(C)C)N(C)C(=O)OCc1ccc(NC(=O)[C@H](CCCNC(N)=O)NC(=O)[C@@H](NC(=O)CCOCCC(=O)NCCNc2ncc(-c3cc(C)cc(F)c3)c(N3CCC(N)CC3)c2-c2nc3ccc(Cl)cc3[nH]2)C(C)C)c(O[C@@H]2O[C@H](C(=O)N(C)CCS(=O)(=O)O)[C@@H](O)[C@H](O)[C@H]2O)c1)C(C)C [Compound 218] | 0.07 | 2.8 | 7
2 | CC[C@H](C)[C@@H]([C@@H](CC(=O)N1CCC[C@H]1[C@H](OC)[C@@H](C)C(=O)N[C@H](C)[C@@H](O)c1ccccc1)OC)N(C)C(=O)[C@@H](NC(=O)[C@H](C(C)C)N(C)C(=O)OCc1ccc(NC(=O)[C@H](CCCNC(N)=O)NC(=O)[C@@H](NC(=O)c2cc(NC(=O)CCCC(=O)N(C)CC(=O)NCCNc3ncc(-c4cc(C)cc(F)c4)c(N4CCC(N)CC4)c3-c3nc4ccc(F)cc4[nH]3)cc(C(=O)NCC(=O)O)c2)C(C)C)cc1)C(C)C [Compound 169] | 0.1 | 10 | 32
3 | CC[C@H](C)[C@@H]([C@@H](CC(=O)N1CCC[C@H]1[C@H](OC)[C@@H](C)C(=O)N[C@H](C)[C@@H](O)c1ccccc1)OC)N(C)C(=O)[C@@H](NC(=O)[C@H](C(C)C)N(C)C(=O)OCc1ccc(NC(=O)[C@H](C)NC(=O)[C@@H](NC(=O)CCCC(=O)N(C)CC(=O)NCCNc2ncc(-c3cc(C)cc(F)c3)c(N3CCC(N)CC3)c2-c2nc3ccc(Cl)cc3[nH]2)C(C)C)c(O[C@@H]2O[C@H](C(=O)NCCN)[C@@H](O)[C@H](O)[C@H]2O)c1)C(C)C [Compound 45] | 1.3 |  | 
4 | CC[C@H](C)[C@@H]([C@@H](CC(=O)N1CCC[C@H]1[C@H](OC)[C@@H](C)C(=O)N[C@H](C)[C@@H](O)c1ccccc1)OC)N(C)C(=O)[C@@H](NC(=O)[C@H](C(C)C)N(C)C(=O)OCc1ccc(NC(=O)[C@H](CCCNC(N)=O)NC(=O)[C@@H](NC(=O)CCOCCC(=O)NCCNc2ncc(-c3cc(C)cc(F)c3)c(N3CCC(N)CC3)c2-c2nc3ccc(Cl)cc3[nH]2)C(C)C)cc1C(=O)O)C(C)C [Compound 7] | 0.26 |  | 
5 | CC[C@H](C)[C@@H]([C@@H](CC(=O)N1CCC[C@H]1[C@H](OC)[C@@H](C)C(=O)N[C@H](C)[C@@H](O)c1ccccc1)OC)N(C)C(=O)[C@@H](NC(=O)[C@H](C(C)C)N(C)C(=O)OCc1ccc(O[C@@H]2O[C@H](C(=O)O)[C@@H](O)[C@H](O)[C@H]2O)c(NC(=O)[C@H](CCCNC(N)=O)NC(=O)[C@@H](NC(=O)CCOCCC(=O)NCCNc2ncc(-c3cc(C)cc(F)c3)c(N3CCC(N)CC3)c2-c2nc3ccc(Cl)cc3[nH]2)C(C)C)c1)C(C)C [Compound 248] |  |  | 3.2
6 | CC[C@H](C)[C@@H]([C@@H](CC(=O)N1CCC[C@H]1[C@H](OC)[C@@H](C)C(=O)N[C@H](C)[C@@H](O)c1ccccc1)OC)N(C)C(=O)[C@@H](NC(=O)[C@H](C(C)C)N(C)C(=O)OCc1ccc(NC(=O)[C@H](CCCNC(N)=O)NC(=O)[C@@H](NC(=O)CCCCCNC(=O)[C@H](CCC(N)=O)NC(=O)[C@H](CCC(N)=O)NC(=O)CCOCCOCCOCCOCCC(=O)NCCNc2ncc(-c3cc(C)cc(F)c3)c(N3CCC(N)CC3)c2-c2nc3ccc(Cl)cc3[nH]2)C(C)C)cc1)C(C)C [Compound 143] (X3-QQ[Ahx]V[Cit][PABC][NMeV]V[Dil][Dolaproine]-X2) | 0.4 |  | 
7 | CC[C@H](C)[C@@H]([C@@H](CC(=O)N1CCC[C@H]1[C@H](OC)[C@@H](C)C(=O)N[C@H](C)[C@@H](O)c1ccccc1)OC)N(C)C(=O)[C@@H](NC(=O)[C@H](C(C)C)N(C)C(=O)OCc1ccc(NC(=O)[C@H](C)NC(=O)[C@@H](NC(=O)CCOCCC(=O)N(C)CC(=O)NCCNc2ncc(-c3cc(C)cc(F)c3)c(N3CCC(N)CC3)c2-c2cc3ccc(Cl)cc3[nH]2)C(C)C)c(O[C@@H]2O[C@H](C(=O)NCCN)[C@@H](O)[C@H](O)[C@H]2O)c1)C(C)C [Compound 46] | 0.23 |  | 
8 | CC[C@H](C)[C@@H]([C@@H](CC(=O)N1CCC[C@H]1[C@H](OC)[C@@H](C)C(=O)N[C@H](C)[C@@H](O)c1ccccc1)OC)N(C)C(=O)[C@@H](NC(=O)[C@H](C(C)C)N(C)C(=O)OCc1ccc(NC(=O)[C@H](C)NC(=O)[C@@H](NC(=O)CCOCCC(=O)N(C)CC(=O)NCCNc2ncc(-c3cc(C)cc(F)c3)c(N3CCC(N)CC3)c2-c2cc3ccc(Cl)cc3[nH]2)C(C)C)c(O[C@@H]2O[C@H](C(=O)NCCN)[C@@H](O)[C@H](O)[C@H]2O)c1)C(C)C [Compound 47] | 0.31 |  | 
9 | CC[C@H](C)[C@@H]([C@@H](CC(=O)N1CCC[C@H]1[C@H](OC)[C@@H](C)C(=O)N[C@H](C)[C@@H](O)c1ccccc1)OC)N(C)C(=O)[C@@H](NC(=O)[C@H](C(C)C)N(C)C(=O)OCc1ccc(NC(=O)[C@H](C)NC(=O)[C@@H](NC(=O)C[C@@H](N)C(=O)NCCOCCC(=O)NCCNc2ncc(-c3cc(C)cc(F)c3)c(N3CCC(NC)CC3)c2-c2nc3ccc(Cl)cc3[nH]2)C(C)C)c(O[C@@H]2O[C@H](C(=O)O)[C@@H](O)[C@H](O)[C@H]2O)c1)C(C)C [Compound 135] | 0.42 | 3.6 | 
10 | CC[C@H](C)[C@@H]([C@@H](CC(=O)N1CCC[C@H]1[C@H](OC)[C@@H](C)C(=O)N[C@H](C)[C@@H](O)c1ccccc1)OC)N(C)C(=O)[C@@H](NC(=O)[C@H](C(C)C)N(C)C(=O)OCc1ccc(NC(=O)[C@H](CCCNC(N)=O)NC(=O)[C@@H](NC(=O)CCCC(=O)N(C)CC(=O)N(C)CC(=O)N(C)CC(=O)NCCNc2ncc(-c3cc(C)cc(F)c3)c(N3CCC(N)CC3)c2-c2nc3ccc(Cl)cc3[nH]2)C(C)C)c(O[C@@H]2O[C@H](C(=O)O)[C@@H](O)[C@H](O)[C@H]2O)c1)C(C)C [Compound 130] |  |  | 3800
11 | CC[C@H](C)[C@@H]([C@@H](CC(=O)N1CCC[C@H]1[C@H](OC)[C@@H](C)C(=O)N[C@H](C)[C@@H](O)c1ccccc1)OC)N(C)C(=O)[C@@H](NC(=O)[C@H](C(C)C)N(C)C(=O)OCc1ccc(NC(=O)[C@H](CCCNC(N)=O)NC(=O)[C@@H](NC(=O)CCOCCC(=O)NCCNc2ncc(-c3cc(C)cc(F)c3)c(N3CCC(N)CC3)c2-c2nc3ccc(Cl)cc3[nH]2)C(C)C)c(O[C@@H]2O[C@H](C(=O)NCCNC(=O)CCCCCCCCCCCCCCC(=O)O)[C@@H](O)[C@H](O)[C@H]2O)c1)C(C)C [Compound 53] | 0.48 |  | 200
12 | CC[C@H](C)[C@@H]([C@@H](CC(=O)N1CCC[C@H]1[C@H](OC)[C@@H](C)C(=O)N[C@H](C)[C@@H](O)c1ccccc1)OC)N(C)C(=O)[C@@H](NC(=O)[C@H](C(C)C)N(C)C(=O)OCc1ccc(NC(=O)[C@H](CCCNC(N)=O)NC(=O)[C@@H](NC(=O)CCOCCC(=O)NCCNc2ncc(-c3cc(C)cc(F)c3)c(N3CCC(N)CC3)c2-c2nc3ccc(Cl)cc3[nH]2)C(C)C)cc1C(=O)NCC(=O)O)C(C)C [Compound 60] | 0.17 |  | 

Source: patent US20260007758A1, “SO[…]-2 RECEPTOR (SST2R) NON-PEPTIDE DRUG CONJUGATES AND USES THEREOF” (Crinetics Pharmaceuticals, Inc., priority 2024, published 2026)
